Source: US7998754B2, “In vitro method for the simultaneous detection and identification of antibiotics of different classes and corresponding diagnostic kit” (Unisensor S.A., priority 2005, dated 2011)
Read-outs that look alike come from different tables or passages of the source.

What was measured:
[1] = test system: tetracycline receptor (TetR); assay: Example 5 dipstick test in milk, tetracycline capture zone (format 1); format: binding, E. Coli
Experimental: (§1) This mixture is either prepared as required or lyophilisated for 20 hours.
(§2) 200 μL of cold milk are incubated for 15 minutes at 30° C. in the presence of 50 μL of the reagents prepared above. After this first incubation, the above-described recovery element is immersed in the solution. Final interpretation is made after a second incubation of 15 minutes.

β-lactame receptor (RSA) [2] = target: T1, β-lactame receptor (RSA) (Staphylococcus aureus, UniProt P18357); format: binding; conditions: milk
T1 construct: made in house
T1 sequence (P18357 331-585 limits assumed): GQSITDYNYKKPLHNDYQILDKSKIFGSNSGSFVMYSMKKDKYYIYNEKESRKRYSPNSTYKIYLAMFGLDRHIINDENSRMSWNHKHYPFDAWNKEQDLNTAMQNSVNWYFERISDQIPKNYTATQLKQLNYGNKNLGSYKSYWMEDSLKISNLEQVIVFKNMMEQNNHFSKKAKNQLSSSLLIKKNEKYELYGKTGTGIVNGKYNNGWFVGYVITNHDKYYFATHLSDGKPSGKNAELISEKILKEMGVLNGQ
Experimental: (§3) The reactive mixture comprises: • 5 parts of β-lactame receptor (RSA) at a concentration of 360 nM; • 10 parts of a monoclonal anti-RSA antibody attached to colloidal gold (OD=10 at 520 nm); • 1 part of biotinylated and diluted anti-sulfadimethoxin in NaPi 50 mM, NaCl 150 mM, pH 7.8; • 10 parts of a dilution of BSA-sulfadimethoxin-gold of 40 nm; • 24 parts of Hepes buffer 120 mM, pH 8, BSA 2%, Dextran 1%, sucrose 5%. This mixture is prepared either as required or lyophilisated for 20 hours. Biotinylation of the Anti-Sulfadimethoxin Antibody
(§4) The recovery system is identical to that of example 1. However, in the present case, it is the biotinylated antisulfamide antibody that will be recovered in the avidine fixed at the second capture point above the control zone.
as §2

β-lactame receptor (RSA) [3] = target: T1, β-lactame receptor (RSA); format: binding; conditions: milk; remark: listed apart in the source
Experimental: as §1, §2

[4] = test system: tetracycline receptor (TetR); assay: Example 2 three-parameter dipstick test in milk, tetracycline capture zone (format 1); format: binding, E. Coli
Experimental: (§5) This mixture is prepared either as required or lyophilisated for 20 hours. The Recovery System
(§6) The other capture zones are identical but differently positioned, as in FIG. 2.
(§7) A single control zone serves as a reference for the three markers.
(§8) 200 μL of cold milk are incubated at 50° C. in the presence of 50 μl of the reagents prepared and/or lyophilisated as above. After 3 minutes of incubation at 50° C., the above-described recovery element is immersed in the solution. The final interpretation is made after 3 minutes of incubation by means of an optical dipstick reader available at Matest (Germany).
(§9) As a general rule, if the ratio of the intensities of the concerned test signal relative to the control signal is less than or equal to 1, the sample is considered as positive for the parameter (compound) concerned.

[5] = test system: tetracycline receptor (TetR); assay: Example 4 dipstick test in meat (pig muscle) extract, tetracycline capture zone (format 2); format: binding, E. Coli
Experimental: (§10) This mixture is either prepared as required or lyophilisated for 20 hours. The Recovery System
(§11) The recovery system is similar to that of example 1. However, in the present case, it is an anti-mouse antibody that forms the first capture point where the monoclonal anti-TetR antibody will be recovered and it is a chicken anti-rabbit antibody that forms the second capture point where the antisulfamide antibody will be recovered.
(§12) 30 ml of a buffer of NaPi 50 mM, pH 8 is added to 10 g of pig muscle and the mixture is mixed with a mixer of type MiniMix (Interscience, F) for 2 minutes. The solution, collected in an Eppendorf tube, is then centrifuged for 1 minute at 6,000 rpm to recover the supernatant from it. 200 μL of supernatant are incubated for 15 minutes at 25° C. in the presence of 50 μL of the reagents prepared above. After this first incubation, the above-described recovery element is immersed in the solution. The final interpretation is made after a second incubation of 15 minutes.

[6] = test system: anti-sulfadimethoxin antibody; assay: Example 2 three-parameter dipstick test in milk, sulfadimethoxin capture zone (format 1); format: binding
Experimental: as §5, §6
The preparation is achieved by the procedure described by Dixon-Holland and Katz^(9). 100 mg of sulfadimethoxin and 200 mg of BSA solubilized in 25 ml of a mixture, comprising two parts of a phosphate buffer of 50 mM, pH 7.2 and 1 part of dioxane, are incubated in the presence of 120 μL of 25% glutaraldehyde stirred for 3 hours at 25° C. The solution is then dialysed for 6 days at 4° C. against 100 volumes of a buffer of NaPi 50 mM, pH 7.2 with a change of buffer every 12 hours.
as §7, §8, §9

[7] = test system: polyclonal antisulfamide rabbit antibody; assay: Example 5 dipstick test in milk, sulfamide capture zone (format 2); format: binding
Experimental: as §1, §2

[8] = test system: antisulfamide rabbit antibody; assay: Example 4 dipstick test in meat (pig muscle) extract, sulfamide capture zone (format 2); format: binding
Experimental: as §10, §11, §12

[9] = test system: biotinylated anti-sulfadimethoxin antibody; assay: Example 3 dipstick test in milk, sulfamide capture zone (format 2); format: binding
Experimental: as §3
825 μL of a solution comprising 5 mg/ml of anti-sulfadimethoxin antibody dialysed in a carbonate buffer 100 mM, pH 9.2 are incubated in the presence of 165 μL of a solution of biotin-LC-NHS at 1.5 mg/ml (available at Perbio, Inc.) for 2 hours at 25° C. sheltered from light. The reaction is blocked by the addition of 10 μL of a solution of a Tris buffer 1M pH 8 for 30 minutes before dialysis 2× for 10 hours against a buffer of NaPi 50 mM, NaCl 150 mM, pH 7.8.
The preparation of BSA-sulfadimethoxin described in example no. 2 is used fixed to particles of colloidal gold in a protocol similar to that described in example no. 1 for preparing the control BSA-gold solution.
as §4, §2

β-lactame receptor (RSA) [10] = target: T1, β-lactame receptor (RSA); format: binding; conditions: milk; remark: listed apart in the source
Experimental: as §5, §6, §7, §8, §9

COc1cc(NS(=O)(=O)c2ccc(N)cc2)nc(OC)n1 [Sulfadimethoxin]
Ratio of the measurement intensities T/C ([1]; sulfamide 50 ppb): 2.8 | Ratio of the measurement intensities T/C ([1]; sulfamide 100 ppb): 2.7 | Ratio of the measurement intensities T/C ([1]; sulfamide 200 ppb): 3 | Ratio of the measurement intensities B/C (β-lactame receptor (RSA) [2]; sulfamide 50 ppb): 1.95 | Ratio of the measurement intensities B/C (β-lactame receptor (RSA) [2]; sulfamide 100 ppb): 1.9 | Ratio of the measurement intensities B/C (β-lactame receptor (RSA) [2]; sulfamide 150 ppb): 2.2 | Ratio of the measurement intensities B/C (β-lactame receptor (RSA) [2]; sulfamide 200 ppb): 2.1 | Ratio of the measurement intensities B/C (β-lactame receptor (RSA) [3]; sulfamide 50 ppb): 2.1 | Ratio of the measurement intensities B/C (β-lactame receptor (RSA) [3]; sulfamide 100 ppb): 1.8 | Ratio of the measurement intensities B/C (β-lactame receptor (RSA) [3]; sulfamide 200 ppb): 1.8 | Ratio of the measurement intensities T/C ([4]; sulfamide 50 ppb): 1.9 | Ratio of the measurement intensities T/C ([4]; sulfamide 100 ppb): 1.9 | Ratio of the measurement intensities T/C ([4]; sulfamide 150 ppb): 2.1 | Ratio of the measurement intensities T/C ([4]; sulfamide 200 ppb): 2.1 | Ratio of the measurement intensities T/C ([5]; sulfamide 50 ppb): 3.4 | Ratio of the measurement intensities T/C ([5]; sulfamide 100 ppb): 3.1 | Ratio of the measurement intensities T/C ([5]; sulfamide 150 ppb): 3.4 | Ratio of the measurement intensities T/C ([5]; sulfamide 200 ppb): 3 | Ratio of the measurement intensities S/C ([6]; ampicillin 4 + tetracycline 75 + sulfamide 100 ppb together): 0.7 | Ratio test/control ([6]; at the detection limit concentration): 0.8 | Concentration detection limit ([6]; sulfadimethoxin, three-parameter test): 100 ppb | Ratio of the measurement intensities S/C ([6]; sulfamide 50 ppb): 1.3 | Ratio of the measurement intensities S/C ([6]; sulfamide 100 ppb): 0.8 | Ratio of the measurement intensities S/C ([6]; sulfamide 150 ppb): 0.6 | Ratio of the measurement intensities S/C ([6]; sulfamide 200 ppb): 0.4 | Ratio of the measurement intensities S/C ([7]; sulfamide 50 ppb): 1.3 | Ratio of the measurement intensities S/C ([7]; sulfamide 100 ppb): 0.9 | Ratio of the measurement intensities S/C ([7]; sulfamide 200 ppb): 0.3 | Ratio of the measurement intensities S/C ([7]; β-lactame 4 + tetracycline 100 + sulfamide 100 ppb together): 0.8 | Ratio of the measurement intensities S/C ([8]; sulfamide 50 ppb): 1.6 | Ratio of the measurement intensities S/C ([8]; sulfamide 100 ppb): 1 | Ratio of the measurement intensities S/C ([8]; sulfamide 150 ppb): 0.85 | Ratio of the measurement intensities S/C ([8]; sulfamide 200 ppb): 0.7 | Ratio of the measurement intensities S/C ([8]; tetracycline 100 + sulfamide 100 ppb together): 0.95 | Ratio of the measurement intensities S/C ([9]; sulfamide 50 ppb): 2 | Ratio of the measurement intensities S/C ([9]; sulfamide 100 ppb): 1 | Ratio of the measurement intensities S/C ([9]; sulfamide 150 ppb): 0.85 | Ratio of the measurement intensities S/C ([9]; sulfamide 200 ppb): 0.7 | Ratio of the measurement intensities S/C ([9]; β-lactame 4 + sulfamide 100 ppb together): 0.95 | Ratio of the measurement intensities B/C (β-lactame receptor (RSA) [10]; sulfamide 50 ppb): 2.4 | Ratio of the measurement intensities B/C (β-lactame receptor (RSA) [10]; sulfamide 100 ppb): 2.2 | Ratio of the measurement intensities B/C (β-lactame receptor (RSA) [10]; sulfamide 150 ppb): 1.9 | Ratio of the measurement intensities B/C (β-lactame receptor (RSA) [10]; sulfamide 200 ppb): 2.4
